Laboratory results from paper PMC2990605 (British Journal of Cancer, 2010).

Experiment: Adverse events (CTCAEv3.0), worst grade per patient regardless of relation, and laboratory parameters
Assay type: in vivo
Settings: for Alanine aminotransferase increased, CTCAE grade 5, patients / Alopecia, CTCAE grade 5, patients / Anaemia, CTCAE grade 5, patients / Anorexia, CTCAE grade 5, patients / Arthralgia, CTCAE grade 5, patients / Back pain, CTCAE grade 5, patients / Blood bilirubin, CTCAE grade 5, patients / Bronchitis, CTCAE grade 5, patients / Constipation, CTCAE grade 5, patients / Cough, CTCAE grade 5, patients / Cystitis, CTCAE grade 5, patients / Dehydration, CTCAE grade 5, patients / Diabetes mellitus, CTCAE grade 5, patients / Diarrhoea, CTCAE grade 5, patients / Dizziness, CTCAE grade 5, patients / Drug hypersensitivity, CTCAE grade 5, patients / Dry skin, CTCAE grade 5, patients / Dyspnoea, CTCAE grade 5, patients / Eosinophilic myocarditis, CTCAE grade 5, patients / Erythema, CTCAE grade 5, patients / Fatigue, CTCAE grade 5, patients / Gastric dilatation, CTCAE grade 5, patients / General physical health deterioration, CTCAE grade 5, patients / Hypercalcaemia, CTCAE grade 5, patients / Hyperglycaemia, CTCAE grade 5, patients / Hyperhidrosis, CTCAE grade 5, patients / Leukopenia, CTCAE grade 5, patients / Malaise, CTCAE grade 5, patients / Mucosal inflammation, CTCAE grade 5, patients / Myalgia, CTCAE grade 5, patients / Nasopharyngitis, CTCAE grade 5, patients / Nausea, CTCAE grade 5, patients / Neutropenia, CTCAE grade 5, patients / Oedema peripheral, CTCAE grade 5, patients / Oedema, CTCAE grade 5, patients / Peripheral sensory neuropathy, CTCAE grade 5, patients / Pollakiuria, CTCAE grade 5, patients / Pruritus, CTCAE grade 5, patients / Pulmonary embolism, CTCAE grade 5, patients / Pyrexia, CTCAE grade 5, patients / Rash, CTCAE grade 5, patients / Spinal cord compression, CTCAE grade 5, patients / Tumour pain, CTCAE grade 5, patients / Urinary tract infection, CTCAE grade 5, patients / Vomiting, CTCAE grade 5, patients / γ-glutamyltransferase increased, CTCAE grade 5, patients: with paclitaxel
Procedure: Toxicity was evaluated according to common toxicity criteria for adverse events (CTCAEv3.0). The MTD was defined as the dose level(s) at which at least two out of six patients developed DLT.
Toxicity assessment, haematology and clinical biochemistry were performed at baseline and weekly during the study. Physical and ECOG performance status were recorded at baseline and before the next cycle.

SMILES: CC(C)C[C@@H](C(=O)N[C@H](C(=O)OC1CCCC1)c1ccccc1)[C@H](O)C(=O)NO [tosedostat]
- Alanine aminotransferase increased, CTCAE grade 5, patients (all cycles): 0
- Alopecia, CTCAE grade 5, patients (all cycles): 0
- Anaemia, CTCAE grade 5, patients (all cycles): 0
- Anorexia, CTCAE grade 5, patients (all cycles): 0
- Arthralgia, CTCAE grade 5, patients (all cycles): 0
- Back pain, CTCAE grade 5, patients (all cycles): 0
- Blood bilirubin, CTCAE grade 5, patients (all cycles): 0
- Bronchitis, CTCAE grade 5, patients (all cycles): 0
- Constipation, CTCAE grade 5, patients (all cycles): 0
- Cough, CTCAE grade 5, patients (all cycles): 0
- Cystitis, CTCAE grade 5, patients (all cycles): 0
- Dehydration, CTCAE grade 5, patients (all cycles): 0
- Diabetes mellitus, CTCAE grade 5, patients (all cycles): 0
- Diarrhoea, CTCAE grade 5, patients (all cycles): 0
- Dizziness, CTCAE grade 5, patients (all cycles): 0
- Drug hypersensitivity, CTCAE grade 5, patients (all cycles): 0
- Dry skin, CTCAE grade 5, patients (all cycles): 0
- Dyspnoea, CTCAE grade 5, patients (all cycles): 0
- Eosinophilic myocarditis, CTCAE grade 5, patients (all cycles): 1
- Erythema, CTCAE grade 5, patients (all cycles): 0
- Fatigue, CTCAE grade 5, patients (all cycles): 0
- Gastric dilatation, CTCAE grade 5, patients (all cycles): 0
- General physical health deterioration, CTCAE grade 5, patients (all cycles): 0
- Hypercalcaemia, CTCAE grade 5, patients (all cycles): 0
- Hyperglycaemia, CTCAE grade 5, patients (all cycles): 0
- Hyperhidrosis, CTCAE grade 5, patients (all cycles): 0
- Leukopenia, CTCAE grade 5, patients (all cycles): 0
- Malaise, CTCAE grade 5, patients (all cycles): 0
- Mucosal inflammation, CTCAE grade 5, patients (all cycles): 0
- Myalgia, CTCAE grade 5, patients (all cycles): 0
- Nasopharyngitis, CTCAE grade 5, patients (all cycles): 0
- Nausea, CTCAE grade 5, patients (all cycles): 0
- Neutropenia, CTCAE grade 5, patients (all cycles): 0
- Oedema peripheral, CTCAE grade 5, patients (all cycles): 0
- Oedema, CTCAE grade 5, patients (all cycles): 0
- Peripheral sensory neuropathy, CTCAE grade 5, patients (all cycles): 0
- Pollakiuria, CTCAE grade 5, patients (all cycles): 0
- Pruritus, CTCAE grade 5, patients (all cycles): 0
- Pulmonary embolism, CTCAE grade 5, patients (all cycles): 0
- Pyrexia, CTCAE grade 5, patients (all cycles): 0
- Rash, CTCAE grade 5, patients (all cycles): 0
- Spinal cord compression, CTCAE grade 5, patients (all cycles): 0
- Tumour pain, CTCAE grade 5, patients (all cycles): 0
- Urinary tract infection, CTCAE grade 5, patients (all cycles): 0
- Vomiting, CTCAE grade 5, patients (all cycles): 0
- γ-glutamyltransferase increased, CTCAE grade 5, patients (all cycles): 0
- Alanine aminotransferase increased, CTCAE grade 5, patients (first 21 days): 0
- Alopecia, CTCAE grade 5, patients (first 21 days): 0
- Anaemia, CTCAE grade 5, patients (first 21 days): 0
- Anorexia, CTCAE grade 5, patients (first 21 days): 0
- Arthralgia, CTCAE grade 5, patients (first 21 days): 0
- Back pain, CTCAE grade 5, patients (first 21 days): 0
- Blood bilirubin, CTCAE grade 5, patients (first 21 days): 0
- Bronchitis, CTCAE grade 5, patients (first 21 days): 0
- Constipation, CTCAE grade 5, patients (first 21 days): 0
- Cough, CTCAE grade 5, patients (first 21 days): 0
- Cystitis, CTCAE grade 5, patients (first 21 days): 0
- Dehydration, CTCAE grade 5, patients (first 21 days): 0
- Diabetes mellitus, CTCAE grade 5, patients (first 21 days): 0
- Diarrhoea, CTCAE grade 5, patients (first 21 days): 0
- Dizziness, CTCAE grade 5, patients (first 21 days): 0
- Drug hypersensitivity, CTCAE grade 5, patients (first 21 days): 0
- Dry skin, CTCAE grade 5, patients (first 21 days): 0
- Dyspnoea, CTCAE grade 5, patients (first 21 days): 0
- Eosinophilic myocarditis, CTCAE grade 5, patients (first 21 days): 0
- Erythema, CTCAE grade 5, patients (first 21 days): 0
- Fatigue, CTCAE grade 5, patients (first 21 days): 0
- Gastric dilatation, CTCAE grade 5, patients (first 21 days): 0
- General physical health deterioration, CTCAE grade 5, patients (first 21 days): 0
- Hypercalcaemia, CTCAE grade 5, patients (first 21 days): 0
- Hyperglycaemia, CTCAE grade 5, patients (first 21 days): 0
- Hyperhidrosis, CTCAE grade 5, patients (first 21 days): 0
- Leukopenia, CTCAE grade 5, patients (first 21 days): 0
- Malaise, CTCAE grade 5, patients (first 21 days): 0
- Mucosal inflammation, CTCAE grade 5, patients (first 21 days): 0
- Myalgia, CTCAE grade 5, patients (first 21 days): 0
- Nasopharyngitis, CTCAE grade 5, patients (first 21 days): 0
- Nausea, CTCAE grade 5, patients (first 21 days): 0
- Neutropenia, CTCAE grade 5, patients (first 21 days): 0
- Oedema peripheral, CTCAE grade 5, patients (first 21 days): 0
- Oedema, CTCAE grade 5, patients (first 21 days): 0
- Peripheral sensory neuropathy, CTCAE grade 5, patients (first 21 days): 0
- Pollakiuria, CTCAE grade 5, patients (first 21 days): 0
- Pruritus, CTCAE grade 5, patients (first 21 days): 0
- Pulmonary embolism, CTCAE grade 5, patients (first 21 days): 0
- Pyrexia, CTCAE grade 5, patients (first 21 days): 0
- Rash, CTCAE grade 5, patients (first 21 days): 0
- Spinal cord compression, CTCAE grade 5, patients (first 21 days): 0
- Tumour pain, CTCAE grade 5, patients (first 21 days): 0
- Urinary tract infection, CTCAE grade 5, patients (first 21 days): 0
- Vomiting, CTCAE grade 5, patients (first 21 days): 0
- γ-glutamyltransferase increased, CTCAE grade 5, patients (first 21 days): 0
- Alanine aminotransferase increased, CTCAE grade 1, patients (human, in vivo): 1
- Alanine aminotransferase increased, CTCAE grade 2, patients (human, in vivo): 1
- Alanine aminotransferase increased, CTCAE grade 3, patients (human, in vivo): 1
- Alanine aminotransferase increased, CTCAE grade 4, patients (human, in vivo): 0
- Alanine aminotransferase increased, patients with events, % (human, in vivo): 14%
- Alopecia, CTCAE grade 2, patients (human, in vivo): 20
- Alopecia, CTCAE grade 3, patients (human, in vivo): 0
- Alopecia, CTCAE grade 4, patients (human, in vivo): 0
- Alopecia, patients with events, % (human, in vivo): 95%
- Anaemia, CTCAE grade 1, patients (human, in vivo): 1
- Anaemia, CTCAE grade 4, patients (human, in vivo): 0
- Anorexia, CTCAE grade 1, patients (human, in vivo): 6
- Anorexia, CTCAE grade 2, patients (human, in vivo): 2
- Anorexia, CTCAE grade 3, patients (human, in vivo): 2
- Anorexia, CTCAE grade 4, patients (human, in vivo): 0
- Anorexia, patients with events, % (human, in vivo): 45%
- Arthralgia, CTCAE grade 1, patients (human, in vivo): 5
- Arthralgia, CTCAE grade 2, patients (human, in vivo): 0
- Arthralgia, CTCAE grade 3, patients (human, in vivo): 0
- Arthralgia, CTCAE grade 4, patients (human, in vivo): 0
- Arthralgia, patients with events, % (human, in vivo): 23%
- Back pain, CTCAE grade 1, patients (human, in vivo): 3
- Back pain, CTCAE grade 2, patients (human, in vivo): 2
- Back pain, CTCAE grade 3, patients (human, in vivo): 0
- Back pain, CTCAE grade 4, patients (human, in vivo): 0
- Back pain, patients with events, % (human, in vivo): 23%
- Blood bilirubin, CTCAE grade 1, patients (human, in vivo): 0
- Blood bilirubin, CTCAE grade 2, patients (human, in vivo): 0
- Blood bilirubin, CTCAE grade 3, patients (human, in vivo): 1
- Blood bilirubin, CTCAE grade 4, patients (human, in vivo): 0
- Blood bilirubin, patients with events, % (human, in vivo): 5%
- Bronchitis, CTCAE grade 1, patients (human, in vivo): 0
- Bronchitis, CTCAE grade 2, patients (human, in vivo): 0
- Bronchitis, CTCAE grade 3, patients (human, in vivo): 1
- Bronchitis, CTCAE grade 4, patients (human, in vivo): 0
- Bronchitis, patients with events, % (human, in vivo): 5%
- Constipation, CTCAE grade 1, patients (human, in vivo): 3
- Constipation, CTCAE grade 2, patients (human, in vivo): 3
- Constipation, CTCAE grade 3, patients (human, in vivo): 0
- Constipation, CTCAE grade 4, patients (human, in vivo): 0
- Constipation, patients with events, % (human, in vivo): 27%
- Cough, CTCAE grade 1, patients (human, in vivo): 8
- Cough, CTCAE grade 2, patients (human, in vivo): 1
